{"source": "patent US20240317827A1", "about": "“LINEAR PEPTIDES INHIBITING CK2-MEDIATED PHOSPHORYLATION AND COMPOSITIONS COMPRISING SAME” (CENTRO DE INGENIERÍA GENÉTICA Y BIOTECNOLOGÍA, priority 2021, published 2024)", "key": {"[1]": {"test_system": "AsPC-1 cell line (pancreatic adenocarcinoma)", "assay_type": "cell-based", "method": "The cell proliferation assay was performed following the procedure previously described (Perera Y, et al., 2012, J. Pept. Sci, 18 (4):215-23).\n(§1) The evaluation of the antiproliferative activity of synthetic polypeptides A15P35, A15P36 and A15P37 (SEQ ID NO: 46-SEQ ID NO: 48) was performed on the NCI-H125, AsPC-1, PanC-1 (pancreatic carcinoma) and OCI-AML3 (acute myeloid leukemia-3) cell lines. The test was carried out according to the procedure previously described (Perera Y, et al., 2012, J. Pept. Sci, 18 (4):215-23). […] The polypeptides A15P35, A15P36 and A15P37 were able to produce a dose-dependent effect on the proliferation of NCI-H125 cells."}, "[2]": {"test_system": "OCI-AML3 (acute myeloid leukemia-3) cell line", "assay": "cell proliferation assay, OCI-AML3 line", "assay_type": "cell-based", "conditions": "Table 7", "method": "as §1"}, "[3]": {"test_system": "PanC-1 (pancreatic carcinoma) cell line", "assay": "cell proliferation assay, PanC-1 line", "assay_type": "cell-based", "conditions": "Table 7", "method": "as §1"}, "[4]": {"test_system": "NCI-H125 cell line (non-small cell lung cancer)", "assay": "cell proliferation assay, NCI-H125 line", "assay_type": "cell-based", "method": "The evaluation of the antiproliferative activity of polypeptides F11P13-F11P21 (SEQ ID NO: 12-SEQ ID NO: 20) was performed on the NCI-H125 cell line. […] The antiproliferative effect of the CIGB-300 peptide has been widely characterized in this line (Cirigliano S. M., et al., 2017, Cancer Cell International, 17, 42), therefore, it was selected as a positive control. Tat peptide was used as a negative control. The polypeptides were evaluated at the concentrations of 25, 50, 100 and 200 μM. The cell proliferation assay was performed by a previously described procedure (Perera Y., et al., 2012, J. Pept. Sci, 18 (4):215-23).\nThe 24 polypeptides identified as SEQ ID NO: 21-SEQ ID NO: 44 maintained the ability to inhibit the phosphorylation of the E7 protein of HPV-16, mediated by CK2, since phosphorylation inhibition values between 60-85% were obtained. […] Evaluation of the antiproliferative activity of synthetic polypeptides generated by positional scanning of Trp (SEQ ID NO: 21-SEQ ID NO: 44) was performed on the NCI-H125 cell line. The test was performed by the procedure previously described. (Perera Y., et al., 2012, J. Pept. Sci, 18 (4): 215-23). Precursor polypeptides (F11P19, F11P20, F11P21) and peptide CIGB-300 were included as positive controls. The polypeptides were evaluated at the concentrations of 12.5; 25; fifty; 100 and 200 μM.\nas §1\n(§2) Antiproliferative assays were performed on the NCI-H125, Hep2C (laryngeal carcinoma) cell lines, and on two bladder cancer lines (MGH-U3 and MGH-U4). The test was carried out according to the procedure previously described (Perera Y., et al, 2012, Pept. Sci, 18 (4):215-23)."}, "[5]": {"test_system": "MGH-U3 bladder cancer line", "assay": "cell proliferation assay, MGH-U3 line", "assay_type": "cell-based, human", "conditions": "Table 9", "method": "as §2"}, "[6]": {"test_system": "Hep2C (laryngeal carcinoma) cell line", "assay": "cell proliferation assay, Hep2C line", "assay_type": "cell-based", "conditions": "Table 9", "method": "as §2"}, "[7]": {"test_system": "MGH-U4 bladder cancer line", "assay": "cell proliferation assay, MGH-U4 line", "assay_type": "cell-based", "conditions": "Table 9", "method": "as §2"}, "[8]": {"biological_target": "T1, CK2-mediated phosphorylation of the HPV-16 E7 oncoprotein (Human papillomavirus type 16, UniProt P03129)", "T1 construct": "Glutathione S-Transferase (GST); made in house; host or cells: Escherichia coli", "T1 sequence (P03129 whole entry, the tested form may be a part)": "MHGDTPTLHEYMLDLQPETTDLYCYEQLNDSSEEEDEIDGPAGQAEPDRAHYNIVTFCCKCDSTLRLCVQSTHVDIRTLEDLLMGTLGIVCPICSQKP", "assay": "in vitro phosphorylation reaction, E7 oncoprotein (GST fusion) as substrate", "assay_type": "biochemical", "conditions": "procedure of Example 2", "method": "The assay to measure the effect of these peptides on the CK2-mediated phosphorylation of the HPV-16 E7 oncoprotein, was based on an in vitro phosphorylation reaction, where the E7 oncoprotein of HPV-16 expressed in Escherichia coli was used as substratum. This oncoprotein was obtained as a fusion protein to Glutathione S-Transferase. The assay was performed according to the procedure previously described. (Perea S. E., et al., 2004, Cancer Res., 64: 7127-7129). The results are shown in FIG. 1, and indicate that the peptides identified as SEQ ID NO: 1-SEQ ID NO: 9 are capable of inhibiting CK2-mediated phosphorylation of the E7 protein of HPV-16."}, "[9]": {"test_system": "cell proliferation in vitro", "conditions": "literature value; read-out: mean maximum inhibitory concentration (IC50), cell proliferation in vitro; cited from earlier work"}, "[10]": {"biological_target": "phosphoacceptor site of the CK2 enzyme in the E7 protein of HPV-16 (BIOT peptide, […]) (Human papillomavirus type 16, UniProt P03129)", "conditions": "peptide coupled to resin; BIOT peptide 120 μg/mL; streptavidin-alkaline phosphatase, BCIP", "procedure": "For the identification of bioactive linear peptides that interact with the phosphoacceptor site of the CK2 enzyme, a combinatorial library of synthetic linear peptides named BCP-1 by type of “one-bead-one-compound” was screened, containing more than 16 million of different peptide sequences. […] Screening was performed with a biotinylated synthetic peptide, called BIOT, which contains the phosphoacceptor site of the CK2 enzyme in the E7 substrate of HPV-16 ([sequence], identified as SEQ ID NO: 63). The streptavidin-alkaline phosphatase conjugate was used as recognition molecule, and p-toluidine salt of 5-bromo-4-chloro-3-indolyl-phosphate (BCIP) was used as substrate for development. The blue color facilitates the visual differentiation of the beads containing bioactive sequences recognized by the BIOT peptide, compared to the bright light yellow color of the TentaGel resin at the BCP-1 library.\nThe BCP-1 library was placed in a polypropylene reactor with a vacuum filtration system and mechanical agitation. It was washed with purified water and saline phosphate buffer solution (PBS) pH 7.4; and blocked with 1% bovine serum albumin (BSA) in PBS pH 7.4 for one hour. Solvents and reagents were removed by vacuum filtration. The library was incubated with 80 mL of a BIOT peptide solution at 150 g/mL in 1% BSA in PBS pH 7.4, for 16 h at 4° C. […]"}, "[11]": {"conditions": "Table 7, read-out: IC50 (μM) NCI-H125"}}, "note": "pIC50: −log10 of the molar value. Like-named read-outs stand apart in the source and are kept apart here. Where a SMILES comes first, the peptide text is derived from it. Bridges are numbered along the chain shown (N, C = ends). [ ]: non-standard residue; d: D form. βAla = NCCC(=O)O"}
{"molecule": "N=C(N)NCCC[C@H](NC(=O)CN)C(=O)N[C@@H](CCCCN)C(=O)N[C@@H](CCCCN)C(=O)N[C@@H](CCCNC(=N)N)C(=O)N[C@@H](CCCNC(=N)N)C(=O)N[C@@H](CCC(N)=O)C(=O)N[C@@H](CCCNC(=N)N)C(=O)N[C@@H](CCCNC(=N)N)C(=O)N[C@@H](CCCNC(=N)N)C(=O)N1CCC[C@H]1C(=O)N1CCC[C@H]1C(=O)N[C@@H](CCC(N)=O)C(=O)NCCC(=O)N[C@@H](Cc1c[nH]c2ccccc12)C(=O)N[C@@H](CCCCN)C(=O)N[C@@H](CCCNC(=N)N)C(=O)N[C@@H](CO)C(=O)N[C@@H](CCCNC(=N)N)C(=O)N[C@@H](Cc1ccc(O)cc1)C(=O)N[C@@H](Cc1c[nH]c2ccccc12)C(=O)N1CCC[C@H]1C(N)=O", "note": "[A15P35, GRKKRRQRRRPPQ-βA-WKRSRYWP] (H-GRKKRRQRRRPPQ[βAla]WKRSRYWP-NH2; N-terminus and C-terminus assumed)", "values": [{"measurement": "IC50", "setting": "[1]; Table 7, read-out: IC50 (μM) AsPC-1", "result": 127, "unit": "µM"}, {"measurement": "IC50", "setting": "[2]", "result": 130, "unit": "µM"}, {"measurement": "IC50", "setting": "[3]", "result": 145, "unit": "µM"}, {"measurement": "IC50", "setting": "[4]; [11]", "result": 106, "unit": "µM"}]}
{"molecule": "CSCC[C@@H]1NC(=O)[C@H](Cc2c[nH]c3ccccc23)NC(=O)[C@@H](NC(=O)CCNC(=O)[C@H](CCC(N)=O)NC(=O)[C@@H]2CCCN2C(=O)[C@@H]2CCCN2C(=O)[C@H](CCCNC(=N)N)NC(=O)[C@H](CCCNC(=N)N)NC(=O)[C@H](CCCNC(=N)N)NC(=O)[C@H](CCC(N)=O)NC(=O)[C@H](CCCNC(=N)N)NC(=O)[C@H](CCCNC(=N)N)NC(=O)[C@H](CCCCN)NC(=O)[C@H](CCCCN)NC(=O)[C@H](CCCNC(=N)N)NC(=O)CN)CSSC[C@@H](C(N)=O)NC(=O)[C@H]([C@@H](C)O)NC(=O)CNC(=O)[C@H](CC(C)C)NC(=O)[C@H](Cc2c[nH]cn2)NC(=O)[C@H](CCCNC(=N)N)NC(=O)[C@@H]2CCCN2C(=O)[C@H](CO)NC1=O", "note": "[CIGB-300, cycle (Cys15-Cys25) GRKKRRQRRRPPQ-βA-CWMSPRHLGTC, reference compound] (H-GRKKRRQRRRPPQ[βAla]CWMSPRHLGTC-NH2; disulfide 15-25; N-terminus and C-terminus assumed)", "values": [{"measurement": "IC50", "setting": "[5]", "result": 327, "unit": "µM"}, {"measurement": "pIC50", "setting": "[1]; AsPC-1, read-out: IC50", "result": 3.99}, {"measurement": "IC50", "setting": "[6]", "result": 61, "unit": "µM"}, {"measurement": "IC50", "setting": "[2]", "result": 63, "unit": "µM"}, {"measurement": "IC50", "setting": "[3]", "result": 156, "unit": "µM"}, {"measurement": "IC50", "setting": "[7]", "result": 335, "unit": "µM"}, {"measurement": "phosphorylation inhibition", "setting": "[8]", "result": 87, "unit": "%"}, {"measurement": "percentage of inhibition of proliferation", "setting": "[4]; NCI-H125, evaluated at 25, 50, 100 and 200 μM, concentration not given", "result": 50, "unit": "%"}, {"measurement": "pIC50", "setting": "[4]; NCI-H125, read-out: IC50 (dose-effect curves)", "result": 4.19}, {"measurement": "IC50", "setting": "[4]; [11]", "result": 64, "unit": "µM"}, {"measurement": "IC50", "setting": "[4]; Table 9, read-out: IC50 (μM) NCl-H125", "result": 64, "unit": "µM"}]}
{"molecule": "O=C(O)c1ccc2c(c1)nc(Nc1cccc(Cl)c1)c1ccncc12", "note": "[CX-4945]", "values": [{"measurement": "pIC50", "setting": "[9]", "result": 5.26}]}
{"molecule": "EQPAFHDP [P10]", "values": [{"measurement": "blue color development after enzymatic assay (interaction with the CK2 phosphoacceptor site)", "setting": "[10]", "result": "did not develop blue coloration"}]}
{"molecule": "VAGFFLDP [P11]", "values": [{"measurement": "blue color development after enzymatic assay (interaction with the CK2 phosphoacceptor site)", "setting": "[10]", "result": "did not develop blue coloration"}]}
